In patent US12343335B2, “Pharmaceutical composition for treating multiple sclerosis on basis of AMPK inhibitory function and zinc homeostasis control function” (ZINCURE CORP., priority 2019, dated 2025):

Legend:
[1] = tested on: cortical neurons of the cultured mice; assay: Zinc toxicity in cortical neurons, cell viability assay (Cell Counting Kit-8); type: cell-based, mouse; settings: ZnCl2 400 μM for 10 minutes, compound 20 μM
Method: (§1) The mouse cortical neurons used in the present invention were extracted from the brain of a mouse embryo, and cultured in Dulbecco's modified Eagle's medium (DMEM, Gibco, Grand Island, NY, US) supplemented with 5% fetal bovine serum (FBS) and 5% horse serum (HS) under the condition of 95% humidity, 5% CO2 and 37° C. For activation and differentiation of the cells, the cells were grown to a density of 2×10^4 cells in a 24-well tissue culture plate and cultured in MEM medium without FBS and HS before treatment with zinc and compounds.
According to an embodiment of the present invention, based on the structural similarity of 1H10 of the present invention, 25 similar compounds having a similar structure were purchased from a compound library manufacturer (InterBioScreen, Russia; Akos, Germany). Then, in order to induce zinc toxicity in the cortical neurons of the cultured mice, ZnCl2 (400 μM) was treated for 10 minutes, and after 12.5 hours, the selected 25 compounds and the previously selected drug 1H10 were treated (20 μM) and it was determined whether cell death was inhibited through cell viability assay (Cell Counting Kit-8, Dojindo).

mouse cortical neurons [2] = assay: Apoptosis by etoposide (ETPS) in cortical neurons, LDH cytotoxicity; type: cell-based; settings: etoposide 10 μM for 20 hours, compound 20 μM
Method: as §1
The present inventors investigated the inhibitory effect against neuronal cell death of the eight drugs and 1H10 of the above examples. Specifically, neurotoxicity due to apoptosis was induced by treatment with etoposide (ETPS, 10 μM) in mouse cortical neurons for 20 hours. Then, the selected 8 drugs and 1H10 were treated (20 μM) and LDH cytotoxicity was observed.

mouse cortical neurons [3] = assay: Oxidative stress by H2O2 in cortical neurons, LDH analysis; type: cell-based; settings: H2O2 100 μM about 4 hours, compound 20 μM
Method: as §1
(§2) The present inventors investigated the inhibitory effect against oxidative stress in addition to zinc toxicity for the eight drugs and 1H10 of the above examples. Specifically, oxidative damage induced neurotoxicity by treating mouse cortical neurons with H2O2 (100 μM) and FeCl2 (100 μM) for about 4 hours and 20 hours, respectively, and treatment with the 8 selected drugs and 1H10 (20 μM). Thereafter, cytotoxicity was observed through LDH (Lactate Dehydrogenase) analysis.

mouse cortical neurons [4] = assay: Excitotoxicity by NMDA in cortical neurons; type: cell-based; settings: NMDA 50 μM for 3 hours
Method: as §1
The present inventors investigated the inhibitory effect against excitotoxicity of the eight drugs and 1H10 of the above examples. Specifically, excitotoxicity was induced by treatment with NMDA (N-methyl-D-aspartate, 50 μM) in mouse cortical neurons for 3 hours.

[5] = tested on: mouse cortical neuron culture; assay: Intrinsic toxicity in cortical neuron culture, LDH cytotoxicity; type: cell-based; settings: 40 μM; for intrinsic toxicity in words: 48 hours of drug treatment
Method: as §1
Specifically, 40 μM of each of the drugs was treated in a mouse cortical neuron culture, and LDH cytotoxicity was observed after 24 or 48 hours.

EAE = settings: zinc chelator administrated to EAE animals; cited from earlier work
[6] = Zinc chelation in a test tube with FluoZin-3; type: binding; settings: 1 μM zinc, 5 μM FluoZin-3, compared with 1H10
Method: The present inventors treated FluoZin-3, a substance illuminate fluorescence if it bind to free zinc to cultivated neurons in order to verify the possibility of zinc chelation according to the treatment of 1H10 {(Z)-5-((1H-indol-3-yl)methylene)-2-((3-hydroxyphenyl)amino)thiazol-4(5H)-one} according to an embodiment of the present invention, and then measured cytosolic zinc level in the neurons for 60 min after exposing zinc (300 μM) for 15 minutes and removing the zinc. In addition, 20 μM zinc (ZnCl2) and NewPort Green DCF fluorophore, which emits fluorescence when it bind to zinc, were added to the test tube, and 1H10 of the present invention was treated at various concentrations. Clioquinol, a zinc chelator, and calcium ionophore Phosphorus ionomycin was used as controls.
In addition, after reacting various concentrations of (0, 0.5, 1, 2, 5, 10, 20, 40 μM) 1H10 or clioquinol with 1 μM zinc and 5 μM fluorescent labeled drug for free zinc (FluoZin-3) in a test tube and fluorescence values were measured. […] 1H10 of the present invention binds zinc even at a lower concentration than clioquinol, but at a high concentration, zinc binding strength is considered to be lower than that of clioquinol (FIG. 5B).

mouse cortical neurons [7] = assay: Oxidative damage by iron (FeCl2) in cortical neurons, LDH analysis; type: cell-based; settings: FeCl2 100 μM about 20 hours, compound 20 μM
Method: as §1, §2

For `O=C1N=C(Nc2ccccc2C(=O)O)S/C1=C/c1c[nH]c2ccccc12` [4C06, (E)-2-((5-((1H-indol-3-yl)methylene)-4-oxo-4,5-dihydrothiazol-2-yl)amino)benzoic acid], the “neuroprotective effect against zinc toxicity (cell viability)” value (“neuroprotective effect … (cell viability)” for short) [1] was “neuroprotective effect” and the “inhibitory effect against ETPS toxicity (LDH)” value (from here on “inhibitory effect”) (mouse cortical neurons [2]) was “significant inhibitory effect”.
With `Cc1ccc(/N=C2\NC(=O)/C(=C/c3c(C)[nH]c4ccccc34)S2)cc1` [4C03, (2E,5Z)-5-((2-methyl-1H-indol-3-yl)methylene)-2-(p-tolylimino)thiazolidin-4-one] the “inhibition of H2O2 toxicity (LDH)” value (mouse cortical neurons [3]) was “significantly inhibit”, the “neuroprotective effect … (cell viability)” value [1] was “neuroprotective effect” and the “inhibition of excitotoxicity caused by NMDA” value (“inhibition … by NMDA” for short) (mouse cortical neurons [4]) was “significantly inhibited”.
In the case of `CCCCc1ccc(NC2=NC(=O)/C(=C/c3c[nH]c4ccccc34)S2)cc1` [4C01, (Z)-5-((1H-indol-3-yl)methylene)-2-((4-butylphenyl)amino)thiazol-4(5H)-one], the “inhibition of H2O2 toxicity (LDH)” value (mouse cortical neurons [3]) was “significantly inhibit”, the “intrinsic toxicity compared with 1H10” value ([5]; 24 or 48 hours (time not specified)) was “insignificant difference from 1H10” and the “neuroprotective effect … (cell viability)” value [1] was “neuroprotective effect”. The “inhibitory effect” value (mouse cortical neurons [2]) was “significant inhibitory effect” and the “inhibition … by NMDA” value (mouse cortical neurons [4]) was “significantly inhibited”.
With `Cc1ccc(NC2=NC(=O)/C(=C/c3c[nH]c4ccccc34)S2)cc1C` [4B01, (5Z)-2-[(3,4-Dimethylphenyl)amino]-5-(1H-indol-3-ylmethylene)-1,3-thiazol-4(5H)-one] the “inhibition of H2O2 toxicity (LDH)” value (mouse cortical neurons [3]) was “significantly inhibit”, the “intrinsic toxicity in words” value [5] was “stronger intrinsic toxicity than 1H10” and the “neuroprotective effect … (cell viability)” value [1] was “neuroprotective effect”. The “inhibitory effect” value (mouse cortical neurons [2]) was “significant inhibitory effect” and the “inhibition … by NMDA” value (mouse cortical neurons [4]) was “significantly inhibited”.
With `Cc1cccc(NC2=NC(=O)/C(=C/c3c[nH]c4ccccc34)S2)c1C` [4B04, (5Z)-2-[(2,3-Dimethylphenyl)amino]-5-(1H-indol-3-ylmethylene)-1,3-thiazol-4(5H)-one] the “inhibition of H2O2 toxicity (LDH)” value (mouse cortical neurons [3]) was “significantly inhibit” and the “neuroprotective effect … (cell viability)” value [1] was “neuroprotective effect”.
For `Oc1c(I)cc(Cl)c2cccnc12` [clioquinol], the “T cell infiltration that cause encephalitis” value (EAE) is given as “inhibitored”, the “demyelination and microglia activity in EAE” value (EAE) is given as “reduced” and the “final FluoZin-3 fluorescence value” [6] is given as “lower”.
For `Cc1ccc(/N=C2/NC(=O)/C(=C\c3c(C)[nH]c4ccccc34)S2)cc1` [4C04, (2Z,5E)-5-((2-methyl-1H-indol-3-yl)methylene)-2-(p-tolylimino)thiazolidin-4-one], the “inhibition of H2O2 toxicity (LDH)” value (mouse cortical neurons [3]) was “significantly inhibit”, the “neuroprotective effect … (cell viability)” value [1] was “neuroprotective effect” and the “inhibition … by NMDA” value (mouse cortical neurons [4]) was “significantly inhibited”.
With `O=C1N=C(Nc2ccc(O)c(C(=O)O)c2)S/C1=C\c1c[nH]c2ccccc12` [4C08, (Z)-5-((5-((1H-indol-3-yl)methylene)-4-oxo-4,5-dihydrothiazol-2-yl)amino)-2-hydroxy benzoic acid] the “inhibition of oxidative damage caused by iron (LDH)” value (mouse cortical neurons [7]) was “inhibited”, the “intrinsic toxicity in words” value [5] was “did not show intrinsic toxicity” and the “neuroprotective effect … (cell viability)” value [1] was “neuroprotective effect”. The “inhibitory effect” value (mouse cortical neurons [2]) was “significant inhibitory effect” and the “inhibition … by NMDA” value (mouse cortical neurons [4]) was “significantly inhibited”.
